Article PMC10385824, “Antiproliferative and Tubulin-Destabilising Effects of 3-(Prop-1-en-2-yl)azetidin-2-Ones and Related Compounds in MCF-7 and MDA-MB-231 Breast Cancer Cells” (Pharmaceuticals, 2023)

Test system: not given
Assay: not given
Settings: not given

Row | Structure (SMILES) | melting point [°C]
1 | C=C/C=C/C1C(=O)N(c2cc(OC)c(OC)c(OC)c2)C1c1ccc([N+](=O)[O-])cc1 (stereo not drawn) [11a, (E)-3-(Buta-1,3-dien-1-yl)-4-(4-nitrophenyl)-1-(3,4,5-trimethoxyphenyl)azetidin-2-one] | 133 to 134
2 | C=C/C=C/C1C(=O)N(c2cc(OC)c(OC)c(OC)c2)C1c1ccc(F)cc1 (stereo not drawn) [11d, (E)-3-(Buta-1,3-dien-1-yl)-4-(4-fluorophenyl)-1-(3,4,5-trimethoxyphenyl)azetidin-2-one] | 137 to 139
3 | C=C(C)C1C(=O)N(c2cc(OC)c(OC)c(OC)c2)C1c1ccc(Oc2ccccc2)cc1 (stereo not drawn) [9k, 4-(4-Phenoxyphenyl)-1-(3,4,5-trimethoxyphenyl)-3-(prop-1-en-2-yl)azetidin-2-one] | 126 to 127
4 | C=C/C=C/C1C(=O)N(c2cc(OC)c(OC)c(OC)c2)C1c1ccc(Oc2ccccc2)cc1 (stereo not drawn) [11k, (E)-3-(Buta-1,3-dien-1-yl)-4-(4-phenoxyphenyl)-1-(3,4,5-trimethoxyphenyl)azetidin-2-one] | 119 to 120
5 | COC(=O)C1=C(C(=O)OC)C(C2C(=O)N(c3cc(OC)c(OC)c(OC)c3)C2c2cccc3ccccc23)CC=C1 (single isomer, unassigned) [22a, Dimethyl-6-(1-(3,4,5-trimethoxyphenyl)-2-(naphthalen-1-yl)-4-oxoazetidin-3-yl)cyclohexa-1,3-diene-1,2-dicarboxylate] | 120 to 122
6 | C=C(C)C1C(=O)N(c2ccccc2)C1c1ccc(OC)cc1 (stereo not drawn) [9x, 4-(4-Methoxyphenyl)-1-phenyl-3-(prop-1-en-2-yl)azetidin-2-one] | 104 to 105
7 | C=C(C)C1C(=O)N(c2cc(OC)c(OC)c(OC)c2)C1c1ccc(OCCCC)cc1 (stereo not drawn) [9j, 4-(4-Butoxyphenyl)-1-(3,4,5-trimethoxyphenyl)-3-(prop-1-en-2-yl)azetidine-2-one] | 55 to 57

Test system: MCF-7 human breast cancer cells
Assay: cells
Settings: MCF7

Row | Structure (SMILES) | IC50 [µM]
8 | C=C(C)C1C(=O)N(c2cc(OC)c(OC)c(OC)c2)C1c1ccc(OC)c([N+](=O)[O-])c1 (stereo not drawn) [9r, 4-(4-Methoxy-3-nitrophenyl)-1-(3,4,5-trimethoxyphenyl)-3-(prop-1-en-2-yl)azetidin-2-one] | 0.01 to 0.033

Same assay, conditions: MCF7, 72 h, MCF-7, Figure 2, 72 h

Row | Structure (SMILES) | IC50 [µM]
9 | C=C(C)C1C(=O)N(c2cc(OC)c(OC)c(OC)c2)C1c1ccc(OC)c(NC(=O)C(N)Cc2ccccc2)c1 (stereo not drawn) [13a, 2-Amino-N-(2-methoxy-5-(1-(3,4,5-trimethoxyphenyl)-4-oxo-3-(prop-1-en-2-yl)azetidin-2-yl)phenyl)-3-phenylpropanamide] | 4.92
10 | C=C(C)C1C(=O)N(c2cc(OC)c(OC)c(OC)c2)C1c1cccc2ccccc12 (stereo not drawn) [9m, 4-Naphthalen-1-yl-1-(3,4,5-trimethoxyphenyl)-3-(prop-1-en-2-yl)azetidin-2-one] | 8.07

Same assay, conditions: MCF7, 72 h, read-out: Antiproliferative Activity IC50, MCF-7, 72 h, eight concentrations 1–50 μM, mean ± SEM, Table 2

Row | Structure (SMILES) | IC50 [µM]
11 | C=C(C)C1C(=O)N(c2cc(OC)c(OC)c(OC)c2)C1c1cccc2ccccc12 (stereo not drawn) [9m, 4-Naphthalen-1-yl-1-(3,4,5-trimethoxyphenyl)-3-(prop-1-en-2-yl)azetidin-2-one] | 44.1 ± 2.57

Same assay, conditions: MCF7, 72 h, read-out: Antiproliferative Activity IC50, MCF-7, 72 h, eight concentrations (0.001–50 mM [sic]), mean ± SEM, Table 5

Row | Structure (SMILES) | IC50 [µM]
12 | COc1ccc(C2C(C=Cc3ccc(C(F)(F)F)cc3)C(=O)N2c2cc(OC)c(OC)c(OC)c2)cc1 (stereo not drawn) [compound 19, 3-(4-(Trifluoromethyl)styryl)-1-(3,4,5-trimethoxyphenyl)-4-(4-methoxyphenyl)azetidin-2-one] | 7.71 ± 0.78
13 | CCOC(=O)CC1C(=O)N(c2cc(OC)c(OC)c(OC)c2)C1c1ccc(OC)c(O)c1 (stereo not drawn) [17g, Ethyl-2-(2-(3-hydroxy-4-methoxyphenyl)-1-(3,4,5-trimethoxyphenyl)-4-oxoazetidin-3-yl)acetate] | 0.075 ± 0.01
14 | COc1cc(N2C(=O)C(CC3CO3)C2c2ccccc2)cc(OC)c1OC (stereo not drawn) [compound 20, 1-(3,4,5-Trimethoxyphenyl)-3-((oxiran-2-yl)methyl)-4-phenylazetidin-2-one] | 51.5 ± 5.46
15 | O=C1C(CC=Cc2ccccc2)C(c2ccccc2)N1c1ccccc1 (stereo not drawn) [17c, 3-Cinnamyl-1,4-diphenylazetidin-2-one] | 75.4 ± 8.12
16 | COc1ccc(C2C(CC=Cc3ccc(C(F)(F)F)cc3)C(=O)N2c2ccccc2)cc1 (stereo not drawn) [17e, 3-(4-(Trifluoromethyl)cinnamyl)-4-(4-methoxyphenyl)-1-phenylazetidin-2-one] | 4.76 ± 0.56
17 | COc1ccc(C2C(CC=Cc3ccc(C(F)(F)F)cc3)C(=O)N2c2cc(OC)c(OC)c(OC)c2)cc1 (stereo not drawn) [17d, 3-(4-(Trifluoromethyl)cinnamyl)-4-(4-methoxyphenyl)-1-(3,4,5-trimethoxyphenyl) azetidin-2-one] | 49.5 ± 5.23
18 | COc1ccc(C2C(CC=Cc3ccccc3)C(=O)N2c2cc(OC)c(OC)c(OC)c2)cc1O (stereo not drawn) [17b, 3-Cinnamyl-4-(3-hydroxy-4-methoxyphenyl)-1-(3,4,5-trimethoxyphenyl)azetidin-2-one] | 1.09 ± 0.08

Same assay, conditions: MCF7, read-out: Antiproliferative Activity IC50

Row | Structure (SMILES) | IC50 [µM]
19 | C=CCC1C(=O)N(c2cc(OC)c(OC)c(OC)c2)C1c1ccc(OC)c(OP(=O)(O)O)c1 (stereo not drawn) [15c, 5-(3-Allyl-1-(3,4,5-trimethoxyphenyl)-4-oxoazetidin-2-yl)-2-methoxyphenyl dihydrogen phosphate] | 0.094 ± 0.015
20 | CCCC1C(=O)N(c2cc(OC)c(OC)c(OC)c2)C1c1ccc(OC)c(OP(=O)(O)O)c1 (stereo not drawn) [15d, 2-Methoxy-5-(1-(3,4,5-trimethoxyphenyl)-4-oxo-3-propylazetidin-2-yl)phenyl dihydrogen phosphate] | 0.032 ± 0.005

Same assay, conditions: MCF7, read-out: Antiproliferative Activity IC50, MCF-7, eight concentrations 0.001–50 μM, mean ± SEM, Table 3

Row | Structure (SMILES) | IC50 [µM]
21 | C=CCC1C(=O)N(c2cc(OC)c(OC)c(OC)c2)C1c1ccc(OC)c(NC(=O)C(N)C(C)C)c1 (stereo not drawn) [13c, N-(5-(3-Allyl-1-(3,4,5-trimethoxyphenyl)-4-oxoazetidin-2-yl)-2-methoxyphenyl)-2-amino-3-methylbutanamide] | 13 ± 1.25
22 | C=CCC1C(=O)N(c2cc(OC)c(OC)c(OC)c2)C1c1ccccc1 (stereo not drawn) [10f, 3-Allyl-4-phenyl-1-(3,4,5-trimethoxyphenyl)azetidin-2-one] | 9.61 ± 1.2
23 | C=CCC1C(=O)N(c2cc(OC)c(OC)c(OC)c2)C1c1ccc(OCCCC)cc1 (stereo not drawn) [10j, 3-Allyl-4-(4-butoxyphenyl)-1-(3,4,5-trimethoxyphenyl)azetidin-2-one] | 17.4 ± 1.23
24 | C=CCC1C(=O)N(c2cc(OC)c(OC)c(OC)c2)C1c1ccc(OCC)cc1 (stereo not drawn) [10i, 3-Allyl-4-(4-ethoxyphenyl)-1-(3,4,5-trimethoxyphenyl)azetidin-2-one] | 0.091 ± 0.01
25 | C=CCC1C(=O)N(c2cc(OC)c(OC)c(OC)c2)C1c1ccc(Br)cc1 (stereo not drawn) [10c, 3-Allyl-4-(4-bromophenyl)-1-(3,4,5-trimethoxyphenyl)azetidin-2-one] | 0.944 ± 0.1
26 | C=CCC1C(=O)N(c2cc(OC)c(OC)c(OC)c2)C1c1ccc2ccccc2c1 (stereo not drawn) [10n, 3-Allyl-4-naphthalen-2-yl-1-(3,4,5-trimethoxyphenyl)azetidin-2-one] | 0.318 ± 0.03
27 | C=CCC1C(=O)N(c2cc(OC)c(OC)c(OC)c2)C1c1ccc(N(C)C)cc1 (stereo not drawn) [10e, 3-Allyl-4-(4-dimethylaminophenyl)-1-(3,4,5-trimethoxyphenyl)azetidin-2-one] | 4.46 ± 0.11
28 | C=CCC1C(=O)N(c2cc(OC)c(OC)c(OC)c2)C1c1ccc(Cl)cc1 (stereo not drawn) [10b, 3-Allyl-4-(4-chlorophenyl)-1-(3,4,5-trimethoxyphenyl)azetidin-2-one] | 0.621 ± 0.095
29 | C=CCC1C(=O)N(c2cc(OC)c(OC)c(OC)c2)C1c1ccc([N+](=O)[O-])cc1 (stereo not drawn) [10a, 3-Allyl-4-(4-nitrophenyl)-1-(3,4,5-trimethoxyphenyl)azetidin-2-one] | 4.13 ± 0.62
30 | C=CCC1C(=O)N(c2ccccc2)C1c1ccc(OC)cc1 (stereo not drawn) [10s, 3-Allyl-4-(4-Methoxyphenyl)-1-phenylazetidin-2-one] | 84.5 ± 8.1
31 | C=CCC1C(=O)N(c2cc(OC)c(OC)c(OC)c2)C1c1ccc(OC)c(NC(=O)C(N)Cc2ccccc2)c1 (stereo not drawn) [13b, N-(5-(3-Allyl-1-(3,4,5-trimethoxyphenyl)-4-oxoazetidin-2-yl)-2-methoxyphenyl)-2-amino-3-phenylpropanamide] | 10.7 ± 1.94
32 | C=CCC1C(=O)N(c2cc(OC)c(OC)c(OC)c2)C1c1ccc(Oc2ccccc2)cc1 (stereo not drawn) [10k, 3-Allyl-4-(4-phenoxyphenyl)-1-(3,4,5-trimethoxyphenyl)azetidin-2-one] | 7.49 ± 0.6

Same assay, conditions: MCF7, read-out: Antiproliferative Activity IC50, MCF-7, eight concentrations 0.001–50 μM, mean ± SEM, Table 4

Row | Structure (SMILES) | IC50 [µM]
33 | C=C/C=C/C1C(=O)N(c2cc(OC)c(OC)c(OC)c2)C1c1ccc([N+](=O)[O-])cc1 (stereo not drawn) [11a, (E)-3-(Buta-1,3-dien-1-yl)-4-(4-nitrophenyl)-1-(3,4,5-trimethoxyphenyl)azetidin-2-one] | 0.784 ± 0.13
34 | C=C/C=C/C1C(=O)N(c2cc(OC)c(OC)c(OC)c2)C1c1ccc(F)cc1 (stereo not drawn) [11d, (E)-3-(Buta-1,3-dien-1-yl)-4-(4-fluorophenyl)-1-(3,4,5-trimethoxyphenyl)azetidin-2-one] | 3.21 ± 0.62
35 | C=C/C=C/C1C(=O)N(c2cc(OC)c(OC)c(OC)c2)C1c1ccc(Oc2ccccc2)cc1 (stereo not drawn) [11k, (E)-3-(Buta-1,3-dien-1-yl)-4-(4-phenoxyphenyl)-1-(3,4,5-trimethoxyphenyl)azetidin-2-one] | 37.9 ± 3.8
36 | C=C/C=C/C1C(=O)N(c2cc(OC)c(OC)c(OC)c2)C1c1ccc2ccccc2c1 (stereo not drawn) [11n, (E)-3-(Buta-1,3-dien-1-yl)-4-(naphthalen-2-yl)-1-(3,4,5-trimethoxyphenyl)azetidin-2-one] | 0.296 ± 0.05
37 | C=CC=CC1C(=O)N(c2cc(OC)c(OC)c(OC)c2)C1c1ccc(OC)c(NC(=O)CN)c1 (stereo not drawn) [13e, 2-Amino-N-(5-(3-(buta-1,3-dienyl)-1-(3,4,5-trimethoxyphenyl)-4-oxoazetidin-2-yl)-2-methoxyphenyl)acetamide] | 9.36 ± 1.21
38 | C=C/C=C/C1C(=O)N(c2cc(OC)c(OC)c(OC)c2)C1c1ccc(N(C)C)cc1 (stereo not drawn) [11e, (E)-3-(Buta-1,3-dien-1-yl)-4-(4-dimethylaminophenyl)-1-(3,4,5-trimethoxyphenyl)azetidin-2-one] | 1.93 ± 0.34
39 | C=C/C=C/C1C(=O)N(c2cc(OC)c(OC)c(OC)c2)C1c1ccc(OCCCC)cc1 (stereo not drawn) [11j, (E)-3-(Buta-1,3-dien-1-yl)-4-(4-butoxyphenyl)-1-(3,4,5-trimethoxyphenyl)-azetidin-2-one] | 182 ± 19.4
40 | C=C/C=C/C1C(=O)N(c2ccccc2)C1c1ccc(OC)cc1 (stereo not drawn) [11s, (E)-3-(Buta-1,3-dien-1-yl)-4-(4-methoxyphenyl)-1-phenylazetidin-2-one] | 15.2 ± 1.41
41 | C=C/C=C/C1C(=O)N(c2cc(OC)c(OC)c(OC)c2)C1c1ccc(OC)c(NC(=O)C(N)C(C)C)c1 (stereo not drawn) [13d, 2-Amino-N-(5-(3-((E)-buta-1,3-dienyl)-1-(3,4,5-trimethoxyphenyl)-4-oxoazetidin-2-yl)-2-methoxyphenyl)-3-methylbutanamide] | 24.2 ± 3.91
42 | C=C/C=C/C1C(=O)N(c2cc(OC)c(OC)c(OC)c2)C1c1ccc(OCc2ccccc2)cc1 (stereo not drawn) [11l, (E)-3-(Buta-1,3-dien-1-yl)-4-(4-benzyloxyphenyl)-1-(3,4,5-trimethoxyphenyl)azetidin-2-one] | 145 ± 11.7
